31 molecules from US10363257B2 (ZENITH EPIGENETICS LTD., priority 2013, dated 2019) can be followed below.

pIC50: −log10 of the molar value.

For the first assay, the target named is T1, Brd4 bromodomain 1 (BRD4(1)) (Homo sapiens, UniProt O60885).
T1 construct: made in house; host or cells: E. coli BL21(DE3)
Kind of assay: Inhibition of tetra-acetylated histone H4 binding to Brd4 bromodomain 1 (TR-FRET). The note with it: tetra-acetylated histone H4 peptide, first bromodomain of Brd4. The procedure:
Proteins were cloned and overexpressed with a N-terminal 6× His tag, then purified by nickel affinity followed by size exclusion chromatography. Briefly, E.coli BL21(DE3) cells were transformed with a recombinant expression vector encoding N-terminally Nickel affinity tagged bromodomains from Brd2, Brd3, Brd4. Cell cultures were incubated at 37° C. with shaking to the appropriate density and induced overnight with IPTG. The supernatant of lysed cells was loaded onto Ni-IDA column for purification. Eluted protein was pooled, concentrated and further purified by size exclusion chromatography. Fractions representing monomeric protein were pooled, concentrated, aliquoted, and frozen at −80° C. for use in subsequent experiments.
Binding of tetra-acetylated histone H4 and BET bromodomains was confirmed by a Time Resolved Fluorescence Resonance Energy Transfer (TR-FRET) method. N-terminally His-tagged bromodomains (200 nM) and biotinylated tetra-acetylated histone H4 peptide (25-50 nM, Millipore) were incubated in the presence of Europium Cryptate-labeled streptavidin (Cisbio Cat. #610SAKLB) and XL665-labeled monoclonal anti-His antibody (Cisbio Cat. #61HISXLB) in a white 96 well microtiter plate (Greiner). For inhibition assays, serially diluted test compound was added to these reactions in a 0.2% final concentration of DMSO. Final buffer concentrations were 30 mM HEPES pH 7.4, 30 mM NaCl, 0.3 mM CHAPS, 20 mM phosphate pH 7.0, 320 mM KF, 0.08% BSA). After a 2-h incubation at room temperature, the fluorescence by FRET was measured at 665 and 620 nm by a SynergyH4 plate reader (Biotek). The binding inhibitory activity was shown by a decrease in 665 nm fluorescence relative to 620 nm. IC50 values were determined from a dose response curve.
A general note: Time-resolved FRET reads energy transfer from a long-lived donor to a nearby acceptor.
With `Cc1noc(C)c1-c1cnc2nc(NCC3CCCCC3)n(Cc3ccccc3)c2c1` [compound 225, 1-benzyl-N-(cyclohexylmethyl)-6-(3,5-dimethylisoxazol-4-yl)-1H-imidazo[4,5-b]pyridin-2-amine], the pIC50 (commonly the IC50 on a negative log10 scale, so that one unit is a factor of ten) is no less than 6.52. Still for that read-out and setting: the same measure for `CNc1nc2ncc(-c3c(C)noc3C)cc2n1Cc1ccc(Cl)cc1` [compound 233, 1-(4-chlorobenzyl)-6-(3,5-dimethylisoxazol-4-yl)-N-methyl-1H-imidazo[4,5-b]pyridin-2-amine]: no less than 6.52; for `Cc1noc(C)c1-c1cnc2nc(NCCN3CCCC3)n(Cc3ccccc3)c2c1` [compound 238, 1-benzyl-6-(3,5-dimethylisoxazol-4-yl)-N-(2-(pyrrolidin-1-yl)ethyl)-1H-imidazo[4,5-b]pyridin-2-amine]: no less than 6.52; for `Cc1noc(C)c1-c1cc([N+](=O)[O-])c2nc(NCc3ccccc3)n(Cc3ccccc3)c2c1` [compound 147, N,1-dibenzyl-6-(3,5-dimethylisoxazol-4-yl)-4-nitro-1H-benzo[d]imidazol-2-amine]: no less than 6.52. Regarding `Cc1nc2ncc(-c3cnnn3C)cc2n1Cc1ccccc1` [compound 206, 1-benzyl-2-methyl-6-(1-methyl-1H-1,2,3-triazol-5-yl)-1H-imidazo[4,5-b]pyridine], the pIC50 was no less than 6.52. Still for that read-out and setting: the same measure for `CCNc1nc2ncc(-c3c(C)noc3C)cc2n1Cc1ccccc1` [compound 107, 1-benzyl-6-(3,5-dimethylisoxazol-4-yl)-N-ethyl-1H-imidazo[4,5-b]pyridin-2-amine]: no less than 6.52; for `Cc1noc(C)c1-c1cnc2nc(NCC(C)(C)O)n(Cc3ccccc3)c2c1` [compound 237, 1-((1-benzyl-6-(3,5-dimethylisoxazol-4-yl)-1H-imidazo[4,5-b]pyridin-2-yl)amino)-2-methylpropan-2-ol]: no less than 6.52. Still for that read-out and setting: the same measure for `Cn1nccc1-c1cnc2nc(N3CCOCC3)n(Cc3ccccc3)c2c1` [compound 175, 4-(1-benzyl-6-(1-methyl-1H-pyrazol-5-yl)-1H-imidazo[4,5-b]pyridin-2-yl)morpholine]: 5.52 to 6.52. For the molecule `Cc1noc(C)c1-c1cc([N+](=O)[O-])c2[nH]c(=O)n([C@H](C)c3ccccc3)c2c1` [compound 240, (R)-6-(3,5-dimethylisoxazol-4-yl)-4-nitro-1-(1-phenylethyl)-1H-benzo[d]imidazol-2(3H)-one], the pIC50 is no less than 6.52. Turning to `Cc1noc(C)c1-c1cc(Br)c2c(c1)nc(C)n2CCOc1ccccc1` [compound 190, 4-(7-bromo-2-methyl-1-(2-phenoxyethyl)-1H-benzo[d]imidazol-5-yl)-3,5-dimethylisoxazole], the negative logarithm of the IC50 (pIC50) was 5.52 to 6.52. As to `Cc1noc(C)c1-c1cnc2nc(NC3CCC(N)CC3)n(Cc3ccccc3)c2c1` (stereo not drawn) [compound 224, N1-(1-benzyl-6-(3,5-dimethylisoxazol-4-yl)-1H-imidazo[4,5-b]pyridin-2-yl)cyclohexane-1,4-diamine], the pIC50 was no less than 6.52. For `Cc1noc(C)c1-c1cnc2nc(NC3CCN(C)CC3)n(Cc3ccccc3)c2c1` [compound 235, 1-benzyl-6-(3,5-dimethylisoxazol-4-yl)-N-(1-methylpiperidin-4-yl)-1H-imidazo[4,5-b]pyridin-2-amine], the negative-log IC50 (pIC50) is no less than 6.52. Same read-out and setting: the same measure for `Cn1nccc1-c1ccc2c(c1)N(Cc1ccccc1)CC(=O)N2` [compound 166, 4-benzyl-6-(1-methyl-1H-pyrazol-5-yl)-3,4-dihydroquinoxalin-2(1H)-one]: 5.52 to 6.52; for `Cc1noc(C)c1-c1cnc2[nH]c(=O)n(Cc3ccc(Cl)c(Cl)c3)c2c1` [compound 101, 1-(3,4-dichlorobenzyl)-6-(3,5-dimethylisoxazol-4-yl)-1H-imidazo[4,5-b]pyridin-2(3H)-one]: 5.52 to 6.52; for `Cc1noc(C)c1-c1cnc2nc(Oc3cccnc3)n(Cc3ccccc3)c2c1` [compound 236, 4-(1-benzyl-2-(pyridin-3-yloxy)-1H-imidazo[4,5-b]pyridin-6-yl)-3,5-dimethylisoxazole]: no less than 6.52. Still for that read-out and setting: the same measure for `Cc1nn(C)c(C)c1-c1cc(N)c2nc(C)n(Cc3ccccc3)c2c1` [compound 184, 1-benzyl-2-methyl-6-(1,3,5-trimethyl-1H-pyrazol-4-yl)-1H-benzo[d]imidazol-4-amine]: 4.52 to 5.52. On the same count and under the same terms, the same measure for `Cc1noc(C)c1-c1cnc2nc(NCCN3CCN(C)CC3)n(Cc3ccccc3)c2c1` [compound 231, 1-benzyl-6-(3,5-dimethylisoxazol-4-yl)-N-(2-(4-methylpiperazin-1-yl)ethyl)-1H-imidazo[4,5-b]pyridin-2-amine]: no less than 6.52; for `Cc1noc(C)c1-c1cnc2nc(NCC3CCOCC3)n(Cc3ccccc3)c2c1` [compound 230, 1-benzyl-6-(3,5-dimethylisoxazol-4-yl)-N-((tetrahydro-2H-pyran-4-yl)methyl)-1H-imidazo[4,5-b]pyridin-2-amine]: no less than 6.52; for `COc1c(-c2c(C)noc2C)ccc2nc(C(F)(F)F)n(Cc3ccccc3)c12` [compound 241, 4-(1-benzyl-7-methoxy-2-(trifluoromethyl)-1H-benzo[d]imidazol-6-yl)-3,5-dimethylisoxazole]: 5.52 to 6.52. On to `CC(=O)Nc1cc(-c2ccnn2C)cc2c1n(C)c(=O)n2Cc1ccccc1` [compound 204, N-(1-benzyl-3-methyl-6-(1-methyl-1H-pyrazol-5-yl)-2-oxo-2,3-dihydro-1H-benzo[d]imidazol-4-yl)acetamide], for which the negative-log IC50 (pIC50) is 5.52 to 6.52. Consider `COCCCNc1nc2ncc(-c3c(C)noc3C)cc2n1Cc1ccccc1` [compound 226, 1-benzyl-6-(3,5-dimethylisoxazol-4-yl)-N-(3-methoxypropyl)-1H-imidazo[4,5-b]pyridin-2-amine], for which the negative-log IC50 (pIC50) was no less than 6.52. On the same count and under the same terms, the same measure for `Cc1noc(C)c1-c1cnc2[nH]c(=O)n(Cc3ccc(F)cc3)c2c1` [compound 228, 6-(3,5-dimethylisoxazol-4-yl)-1-(4-fluorobenzyl)-1H-imidazo[4,5-b]pyridin-2(3H)-one]: no less than 6.52. The same measure, in the same setting: the same measure for `CNc1nc2ncc(-c3c(C)noc3C)cc2n1Cc1ccc(F)cc1` [compound 232, 6-(3,5-dimethylisoxazol-4-yl)-1-(4-fluorobenzyl)-N-methyl-1H-imidazo[4,5-b]pyridin-2-amine]: no less than 6.52. As to `Cc1noc(C)c1-c1cnc2nc(NCc3cnccn3)n(Cc3ccccc3)c2c1` [compound 229, 1-benzyl-6-(3,5-dimethylisoxazol-4-yl)-N-(pyrazin-2-ylmethyl)-1H-imidazo[4,5-b]pyridin-2-amine], the pIC50 was no less than 6.52. Regarding `Cc1noc(C)c1-c1cnc2nc(NC3COC3)n(Cc3ccccc3)c2c1` [compound 227, 1-benzyl-6-(3,5-dimethylisoxazol-4-yl)-N-(oxetan-3-yl)-1H-imidazo[4,5-b]pyridin-2-amine], the pIC50 is no less than 6.52. Consider `Cc1noc(C)c1-c1cc(Br)c2nc(C)n(CCCc3ccccc3)c2c1` [compound 187, 4-(4-bromo-2-methyl-1-(3-phenylpropyl)-1H-benzo[d]imidazol-6-yl)-3,5-dimethylisoxazole], for which the pIC50 was 5.52 to 6.52. The same measure, in the same setting: the same measure for `Cc1noc(C)c1-c1cnc2nc(NC3CCCCC3)n(Cc3ccccc3)c2c1` [compound 234, 1-benzyl-N-cyclohexyl-6-(3,5-dimethylisoxazol-4-yl)-1H-imidazo[4,5-b]pyridin-2-amine]: no less than 6.52; for `Cc1noc(C)c1-c1cnc2nc(NCCN3CCCCC3)n(Cc3ccccc3)c2c1` [compound 239, 1-benzyl-6-(3,5-dimethylisoxazol-4-yl)-N-(2-(piperidin-1-yl)ethyl)-1H-imidazo[4,5-b]pyridin-2-amine]: no less than 6.52; for `Cc1noc(C)c1-c1cc(Br)c2nc(C)n(CCOc3ccccc3)c2c1` [compound 189, 4-(4-bromo-2-methyl-1-(2-phenoxyethyl)-1H-benzo[d]imidazol-6-yl)-3,5-dimethylisoxazole]: 5.52 to 6.52.

Regarding `Cc1noc(C)c1-c1cc(Br)c2c(c1)nc(C)n2CCCc1ccccc1` [compound 188, 4-(7-bromo-2-methyl-1-(3-phenylpropyl)-1H-benzo[d]imidazol-5-yl)-3,5-dimethylisoxazole], the pIC50 was 4.52 to 5.52.

Another assay deals with human AML MV-4-11 cells. As to the kind of experiment: Inhibition of cell proliferation in MV4-11 cells (CellTiter Aqueous One). The format is cell-based. The settings on record: 72 h. The procedure:
MV4-11 cells: 96-well plates were seeded with 5×10^4 cells per well of exponentially growing human AML MV-4-11 (CRL-9591) cells and immediately treated with two-fold dilutions of test compounds, ranging from 30 μM to 0.2 μM. Triplicate wells were used for each concentration, as well as a media only and three DMSO control wells. The cells and compounds were incubated at 37° C., 5% CO2 for 72 h before adding 20 μL of the CellTiter Aqueous One Solution (Promega) to each well and incubating at 37° C., 5% CO2 for an additional 3-4 h. The absorbance was taken at 490 nm in a spectrophotometer and the percentage of proliferation relative to DMSO-treated cells was calculated after correction from the blank well. IC50 were calculated using the GraphPad Prism software.
As for `Cc1noc(C)c1-c1cc2c(ncn2Cc2ccc(F)cc2)[n+]([O-])c1` [compound 79, 6-(3,5-dimethylisoxazol-4-yl)-1-(4-fluorobenzyl)-1H-imidazo[4,5-b]pyridine 4-oxide], the “Cell Proliferation activity” value is “Not active”.

Staying with this assay, now noted: MV4-11, 72 h.
Take `Cc1nc2ncc(-c3cnnn3C)cc2n1Cc1ccccc1` [compound 206, 1-benzyl-2-methyl-6-(1-methyl-1H-1,2,3-triazol-5-yl)-1H-imidazo[4,5-b]pyridine]: the pIC50 was 4.52 to 5.52. Same read-out and setting: the same measure for `CCNc1nc2ncc(-c3c(C)noc3C)cc2n1Cc1ccccc1` [compound 107, 1-benzyl-6-(3,5-dimethylisoxazol-4-yl)-N-ethyl-1H-imidazo[4,5-b]pyridin-2-amine]: 5.52 to 6.52.
